# US20120225862A1, “HETEROARYL BENZAMIDES, COMPOSITIONS AND METHODS OF USE” (AUCKLAND UNIVSERVICES LIMITED, priority 2009, published 2012)
# Key:
# [1] = target: T1, Abl (Homo sapiens, UniProt P00519); assay: In vitro kinase activity (Millipore KinaseProfiler): Abl; type: biochemical; settings: no head or unit printed
# T1 construct: purchased Millipore (KinaseProfiler service)
# Description: (§1) All cells were grown in DMEM+10% FCS. ACHN and ACHN shVHL were a kind gift from George V. Thomas (UCLA). HIF overexpressing clones were described previously. Transfection of RNA oligos were performed with DnarmaFECT Reagent 1 (Dharmcon), according to manufacturer's directions. ON-TARGETplus SMART pools against HIF-1β/ARNT were purchased from Dharmacon. Glut1 was detected with anti-GLUT1 antibody from NeoMarkers/LabVision/Fisher. Pyruvate/lactate levels and hexokinase activity were both measured by fluorometric assay (BioVision and Sigma-Aldrich, respectively). ATP levels were measured by bioluminescence assay (ATP Determination Kit from Molecular Probes/Invitrogen). In vitro kinase activities were performed by Millipore KinaseProfiler. Affi-Gel 10 (BioRad) activated affinity media was coupled to analogs to generate immobilized affinity linkers.
# (§2) We next wanted to investigate the differential glucose uptake between RCCs with and without VHL treated with compound 47 that subsequently lead to the selective death of VHL-deficient cells. We first examined the message levels of the two main glucose transporters, GLUT1 and GLUT2 by quantitative real-time PCR. GLUT1 is an inducible, high-affinity glucose transporter, while GLUT2 is the glucose transporter responsible for basal glucose uptake. […] Cells deficient in VHL had very low levels of GLUT2 that could barely be detected (FIG. 3J). […]
# [2] = tested on: hexokinase; assay: Hexokinase activity in whole cell lysates, RCC4/VHL; type: cell-based, human; settings: 5 μM
# Description: as §1
# We then examined whether this decrease in glycolysis in response to compound 47 was due to a decrease in glucose uptake or whether compound 47 inhibited a particular glycolytic enzyme. To test this, we measured glucose uptake using 2-deoxy-D-[^3H] glucose, a non-hydrolyzable, radioactive glucose analog, following two days of treatment with compound 47. […] RCC4/VHL cells had lower baseline levels of glucose uptake compared to RCC4 cells and were unaffected by treatment with compound 47. […]
# [3] = tested on: AMPK; assay: In vitro kinase activity (Millipore KinaseProfiler): AMPK; type: biochemical; settings: no head or unit printed
# Description: as §1, §2
# [4] = tested on: RCC4; assay: Clonogenic survival, RCC4; type: cell-based, human
# Description: Three hundred cells were plated into 60-mm tissue culture dishes in DMEM. The next day, cells were treated with vehicle or drug and were further incubated for an additional 10 days. […] The stain was removed and plates were washed in deionized water. Colonies were quantified. All conditions were measured in triplicate and all experiments were performed in triplicate.
# For 2,3-bis[2-methoxy-4-nitro-5-sulfophenyl]-2H-tetrazolium-5-carboxanilide (XTT) assays, five thousand cells were plated in 96-well plates. The next day, vehicle (DMSO) or drug was added by serial dilution. […] Metabolism of XTT was quantified by measuring the absorbance at 450 nm. IC50s were calculated using linear interpolation. For clonogenic survival assays, three hundred cells were plated per 60 mm tissue culture dish. The cells were allowed to attach overnight and then treated with vehicle or drug for […]. […] All conditions were measured in triplicate and each experiment was done in duplicate or triplicate. To determine necrosis, cells were treated with drug for a given time point. Media and cells were collected, centrifugated, and resuspended in 0.4% trypan blue (Invitrogen). Live and dead cells were counted on a hematocytometer.
# [5] = target: T2, Hck (Homo sapiens, UniProt P08631); assay: In vitro kinase activity (Millipore KinaseProfiler): Hck; type: biochemical; settings: no head or unit printed
# T2 construct: purchased Millipore (KinaseProfiler service)
# T2 sequence (P08631 whole entry, species assumed): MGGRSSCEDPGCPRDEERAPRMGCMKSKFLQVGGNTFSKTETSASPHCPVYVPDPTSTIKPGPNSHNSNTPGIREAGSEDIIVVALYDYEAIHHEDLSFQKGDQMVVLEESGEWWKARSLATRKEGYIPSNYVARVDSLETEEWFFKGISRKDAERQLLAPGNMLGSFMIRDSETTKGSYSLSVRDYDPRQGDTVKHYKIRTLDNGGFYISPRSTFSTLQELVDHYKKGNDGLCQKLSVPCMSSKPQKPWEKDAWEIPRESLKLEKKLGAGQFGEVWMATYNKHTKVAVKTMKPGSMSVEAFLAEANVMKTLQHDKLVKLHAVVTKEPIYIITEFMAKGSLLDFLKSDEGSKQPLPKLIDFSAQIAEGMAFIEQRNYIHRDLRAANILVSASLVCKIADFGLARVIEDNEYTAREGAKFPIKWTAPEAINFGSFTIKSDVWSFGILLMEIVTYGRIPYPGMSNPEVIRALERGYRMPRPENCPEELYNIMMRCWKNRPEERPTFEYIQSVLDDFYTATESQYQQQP
# Description: as §1, §2
# [6] = target: T3, DYRK2 (Homo sapiens, UniProt Q92630); assay: In vitro kinase activity (Millipore KinaseProfiler): DYRK2; type: biochemical; settings: no head or unit printed
# T3 construct: purchased Millipore (KinaseProfiler service)
# T3 sequence (Q92630 whole entry, species assumed): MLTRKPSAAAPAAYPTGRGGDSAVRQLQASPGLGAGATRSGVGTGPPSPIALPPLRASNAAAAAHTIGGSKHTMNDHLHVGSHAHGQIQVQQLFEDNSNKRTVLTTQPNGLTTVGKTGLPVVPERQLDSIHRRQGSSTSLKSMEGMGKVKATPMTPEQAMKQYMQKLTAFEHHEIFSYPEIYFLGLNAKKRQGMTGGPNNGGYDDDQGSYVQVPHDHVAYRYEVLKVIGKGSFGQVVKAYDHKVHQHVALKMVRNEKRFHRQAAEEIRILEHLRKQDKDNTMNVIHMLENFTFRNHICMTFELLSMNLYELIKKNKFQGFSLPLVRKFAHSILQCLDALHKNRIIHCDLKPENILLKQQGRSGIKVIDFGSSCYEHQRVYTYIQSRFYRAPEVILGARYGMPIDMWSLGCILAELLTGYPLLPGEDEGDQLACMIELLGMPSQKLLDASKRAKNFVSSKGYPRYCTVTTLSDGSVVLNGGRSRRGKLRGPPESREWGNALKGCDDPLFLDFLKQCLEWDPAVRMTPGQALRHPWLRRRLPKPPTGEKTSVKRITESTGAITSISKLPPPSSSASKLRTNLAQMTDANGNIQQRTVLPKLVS
# Description: as §1, §2
# [7] = tested on: RCC4; assay: 3H-2-deoxyglucose uptake, RCC4; type: cell-based, human
# Description: One hundred thousand cells were plated into 6-well plates. The following day, the cells were treated with vehicle or drug and incubated for the indicated time. Cells were washed twice in phosphate buffered saline and low glucose media was added for 30 minutes. Cells were then incubated with 0.5 microCi of tritiated-2-deoxyglucose and incubated for an hour at 37° C. Cells were washed twice in PBS and then lysed in 0.2 N NaOH and 0.2% SDS. Lysates were transferred to scintillation tubes with scintillation fluid and quantified by scintillation counter.
# One hundred thousand cells were plated per well in a six-well plate. The next day, cells were treated with the indicated concentration of drug and incubated for the indicated time. Cells were then washed twice with phosphate-buffered saline, incubated in low-glucose medium for 30 minutes, and ^3H-2-deoxyglucose (0.5 μCi) was added in 1 ml of glucose-free media for an additional hour. Cells were washed twice in PBS and lysed (0.2 N NaOH and 0.2% sodium dodecyl sulfate). Glucose uptake was quantified with a scintillation counter.
# T1 sequence (P00519 whole entry, species assumed): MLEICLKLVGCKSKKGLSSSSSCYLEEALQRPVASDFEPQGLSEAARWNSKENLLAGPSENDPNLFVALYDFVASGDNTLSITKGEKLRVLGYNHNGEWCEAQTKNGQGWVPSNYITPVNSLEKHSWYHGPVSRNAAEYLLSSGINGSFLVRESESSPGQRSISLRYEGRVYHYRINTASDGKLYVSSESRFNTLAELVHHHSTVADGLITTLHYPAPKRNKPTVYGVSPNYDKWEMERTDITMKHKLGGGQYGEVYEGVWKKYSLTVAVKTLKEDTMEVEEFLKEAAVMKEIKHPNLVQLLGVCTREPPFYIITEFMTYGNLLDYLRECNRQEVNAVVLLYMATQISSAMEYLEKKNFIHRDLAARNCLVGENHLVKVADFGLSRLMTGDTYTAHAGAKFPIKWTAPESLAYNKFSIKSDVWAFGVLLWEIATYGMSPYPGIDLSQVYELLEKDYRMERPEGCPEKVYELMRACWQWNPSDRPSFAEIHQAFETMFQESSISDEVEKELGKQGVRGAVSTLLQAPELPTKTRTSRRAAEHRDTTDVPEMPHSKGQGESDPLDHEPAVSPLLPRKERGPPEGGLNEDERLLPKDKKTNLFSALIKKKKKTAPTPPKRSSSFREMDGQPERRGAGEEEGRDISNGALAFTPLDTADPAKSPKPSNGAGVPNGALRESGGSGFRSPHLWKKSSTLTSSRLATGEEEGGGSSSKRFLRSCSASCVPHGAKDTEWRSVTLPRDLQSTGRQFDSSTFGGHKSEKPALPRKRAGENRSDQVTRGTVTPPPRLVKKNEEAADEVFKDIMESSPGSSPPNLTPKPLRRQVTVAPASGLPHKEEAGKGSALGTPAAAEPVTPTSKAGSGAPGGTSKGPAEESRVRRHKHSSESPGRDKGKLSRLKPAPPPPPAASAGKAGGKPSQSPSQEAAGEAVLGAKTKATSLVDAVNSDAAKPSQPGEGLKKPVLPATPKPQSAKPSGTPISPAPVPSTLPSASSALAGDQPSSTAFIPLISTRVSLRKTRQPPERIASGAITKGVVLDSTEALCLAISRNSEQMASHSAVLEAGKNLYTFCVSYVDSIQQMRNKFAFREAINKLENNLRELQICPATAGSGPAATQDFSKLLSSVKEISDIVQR
compound,measurement,setting,value
"CC(C)(C)c1ccc(S(=O)(=O)NCc2ccc(C(=O)Nc3cccnc3)cc2)cc1 [Example 38, 4-((4-tert-Butylphenylsulfonamido)methyl)-N-(pyridin-3-yl)benzamide]",Abl kinase activity,[1],108
same,hexokinase activity in RCC4/VHL,[2],unchanged
same,AMPK kinase activity,[3],92%
same,reversibility of induced cell death,"[4]; 5 μM, media replaced after indicated time, total 10 days",irreversible after three days
same,clonogenic survival of RCC4,"[4]; RCC4 (VHL-deficient), 5 μM, 10 days",specifically toxic to RCC4 cells
same,RCC4 cells killed following treatment,"[4]; compound 5 μM, FIG. 2D",Approximately 80%
same,Hck kinase activity,[5],84%
same,DYRK2 kinase activity,[6],94%
same,glucose uptake in VHL-deficient RCC4 cells,"[7]; 3H-2-deoxyglucose, two days of treatment, 5 μM",impaired glucose uptake
same,concentration dependence of glucose uptake inhibition in RCC4,"[7]; increasing concentrations, FIG. 3C",dose-dependent manner
